From patent US10961222B2, “Chemical compound of isocitrate dehydrogenase inhibitor, and application thereof” (NANJING SANHOME PHARMACEUTICAL CO., LTD., priority 2016, dated 2021) come the findings set out here.

The test system of experiment [1] is U87-MG (IDH2-R140Q) subcutaneous xenograft tumor. As to the kind of experiment: Subcutaneous xenograft tumor caused by U87-MG (IDH2-R140Q) mutant cells in vivo: intratumor 2-HG. Also noted: species or system BALB/c nude mice. To be noted: intragastric, 10 days, mean, relative to U87-MG (IDH2-R140Q) control group.
The test system of experiment [2] is human acute myeloid leukemia AM7577 cells. As to the kind of experiment: Human acute myeloid leukemia NOD/SCID animal model: survival. In kind it is in vivo, NOD/SCID mice. To be noted: gavage once a day for 14 days, 14 days after administration. The source says: 1.1 Compounds to be tested: the compounds of the present disclosure prepared in the above examples, each of which was formulated into a solution in corresponding concentrations by using a vehicle (2% absolute ethanol:10% Solutol™: 88% physiological saline (v/v/v)).
1.2 Cells: human acute myeloid leukemia AM7577 cells, provided by Sino-American Crown Biotechnology (Beijing) Co., Ltd
1.4 Animals: NOD/SCID mice, 3-4 weeks old, female, purchased from Beijing Huakangkang Biotechnology Co., Ltd
Each mouse was inoculated through the tail vein at an amount of 2×10^6 cells resuspended in 100 uL of PBS.
Orbital blood samples of animals were collected weekly, labeled with human CD45, and the percentage of positive cells was detected. The animals were grouped when the percentage of peripheral blood CD45+ cells reached 5%. The proportion of peripheral blood CD45+ cells reached 5% on the 40th day after inoculation. After grouping, drugs were administered by gastric gavageonce once a day for 14 days.
The mortality rate of the animals after administration and the survival period of the surviving animals were observed.

As for `CC(C)(O)CNc1nc(Nc2ccnc(C(F)(F)F)c2)nc(-c2cccc(C(F)(F)F)n2)n1` [AG-221, 2-methyl-1-(4-(6-(trifluoromethyl)pyridin-2-yl)-6-(2-(trifluoromethyl)pyridin-4-ylamino)-1,3,5-triazin-2ylamino)propan-2-ol, reference compound], the “Intratumor 2-HG(%) after 10 days of administration” value was 58% in experiment [1] (6.25 mg/kg), 9% in experiment [1] (12.5 mg/kg) and −4% in experiment [1] (25 mg/kg). The “Numbers of surviving animals” value was 6 in experiment [2] (15 mg/kg, 8 animals per group) and 3 in experiment [2] (45 mg/kg, AG-221 group 4 animals, Example 22B group 8).
